The values that follow come from ChEMBL document CHEMBL3596190, “Non-classical -carbonic anhydrase inhibitors-towards novel anti-mycobacterials” (Medchemcomm, 2014).

Molecules are shown by their SMILES. ≈ marks a conversion by molar mass, not a printed value. Calls of active or inactive are those of the source. No cut-off for these calls is given here.

Test [1] deals with BL21-AI. Conditions: Mycobacterium tuberculosis, at 25 µM.
Description: Inhibition of His6-tagged Mycobacterium tuberculosis Rv3588c expressed in Escherichia coli BL21-AI cells assessed as reduction in Vmax at 25 uM by stopped flow CO2 hydration assay based Michaelis-Menten analysis
The nature of test [2]: Inhibition of His6-tagged Mycobacterium tuberculosis Rv3588c expressed in Escherichia coli BL21-AI cells by stopped flow CO2 hydration assay based Michaelis-Menten analysis. The class given is cell-based.
Test [3] concerns BL21-AI. The test can be described thus: Inhibition of His6-tagged Mycobacterium tuberculosis Rv3588c expressed in Escherichia coli BL21-AI cells assessed as increase in Hill coefficient at 25 uM by stopped flow CO2 hydration assay based Michaelis-Menten analysis.
Test [4] has as its target T1, Beta-carbonic anhydrase 1 (Mycobacterium tuberculosis) (UniProt P9WPJ7).
T1 sequence (whole entry): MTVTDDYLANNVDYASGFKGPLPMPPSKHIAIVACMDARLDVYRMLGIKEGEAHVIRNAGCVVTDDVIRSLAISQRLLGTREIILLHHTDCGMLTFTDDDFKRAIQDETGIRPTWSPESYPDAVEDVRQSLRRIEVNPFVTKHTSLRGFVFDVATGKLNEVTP
The test can be described thus: Binding affinity to His6-tagged Mycobacterium tuberculosis Rv1284 expressed in Escherichia coli BL21-AI cells assessed as […] in melting temperature at 250 uM by SYPRO orange dye based differential scanning fluorimetry. For orientation: In DSF a fluorescence change marks the thermal transition of the protein.

Test [5] concerns Mycobacterium tuberculosis. As to the kind of experiment: Effect on quaternary structure of un-tagged Mycobacterium tuberculosis beta-carbonic anhydrase Rv3588c at pH 8.5 by size exclusion chromatography. On the technique in general: In gel filtration, larger molecules generally elute earlier.
In test [6] the test system is Mycobacterium tuberculosis. As to the kind of experiment: Effect on quaternary structure of un-tagged Mycobacterium tuberculosis beta-carbonic anhydrase Rv3588c at pH 6.0 by size exclusion chromatography.
Test [7] deals with Mycobacterium tuberculosis. As to the kind of experiment: Growth inhibition of Mycobacterium tuberculosis H37Ra incubated for 7 days by resazurin dye based fluorescence assay. The class given is functional. Conditions: 168 h. (Alamar Blue is a resazurin reagent that responds to reducing activity.)

With `C=C1CC[C@@H](C/C=C(\C)CC/C=C(/CCC=C(C)C)C(=O)O)C(C)(C)[C@H]1CC/C(C)=C/C(=O)O`, the inhibition result with BL21-AI [1] and in the test on BL21-AI [3] was “Active” each time. In test [2], this molecule displayed a Ki of 10 µM. Moreover, in test [4], the deltaTm worked out at 5.4 K. Moreover, the result in test [5] and in test [6] was inactive. Besides, the MIC90 in test [7] was above 50 µM.

For `COc1c(Br)cc(/C=C/C(=O)NCCCNCCCCNCCCNC(=O)/C=C/c2cc(Br)c(OC)c(Br)c2)cc1Br` [IANTHELLIFORMISAMINE C], the inhibition entry in the test with BL21-AI [1] and in the test with BL21-AI [3] was “Active” in each case. This molecule registered a Ki in test [2] of 16 µM. Also, in test [4], the deltaTm came out at 1 K. Also, the result in test [5] and in test [6] was inactive. In test [7], this molecule displayed an MIC90 of 12.5 µM (≈ 10.5 µg/mL).

Consider `COc1c(Br)cc(C/C(=N\O)C(=O)NCCCC(=O)N(C)CCCCN(C)CCCNC(=O)/C(Cc2cc(Br)c(OC)c(Br)c2)=N/O)cc1Br` [SPERMATINAMINE], for which the inhibition constant Ki in test [2] was determined as 23 µM. The inhibition result in the test with BL21-AI [3] is “Active”. Moreover, the deltaTm in test [4] came out at 1.2 K. Also, the result in test [5] and in test [6] was inactive. In addition, in test [7], the MIC90 worked out at 6.3 µM (≈ 6.03 µg/mL).

For the molecule `N#C[S-].[Na+]` [THIOCYANATE SODIUM], the inhibition result in the test on BL21-AI [1] was “Active”. The molecule also had a Ki in test [2] of 8 µM.

Broadly, the Ki is the dissociation constant of the complex between target and ligand, obtained from inhibition or displacement. The term MIC90 denotes an inhibitory concentration at the 90% level, which refers to growth in some studies and to a panel of isolates in others. The low end stands for greater potency, the high end for weaker potency.
